Among the data in patent US20170121322A1, “BET-PROTEIN INHIBITING 3,4-DIHYDROPYRIDO[2,3-B]PYRAZINONES WITH META-SUBSTITUTED AROMATIC AMINO- OR ETHER GROUPS” (Bayer Pharma Aktiengesellschaft, priority 2014, published 2017) are IC50 values, retold here.

For test [1], the target named is T1, BRD4 bromo domain 1 [BRD4(1)] (Homo sapiens, UniProt O60885).
T1 construct: N-terminally His6-tagged BRD4(1) (amino acids 67-152); made in house; host or cells: E. coli
The experiment in a line: BRD4(1)/acetylated peptide H4 TR-FRET binding assay. The note with it: His6-BRD4(1) (aa 67-152) vs acetylated histone H4 peptide. In outline:
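His6-tagged BRD4(1) (aa 67-152, E. coli-expressed; 10 nM) pre-incubated with compound (0.1 nM–20 μM, duplicates) for 10 min at 22 °C in HEPES pH 7.5 buffer, then biotinylated tetra-acetylated H4 peptide with TR-FRET reagents added. After 1 h at 22 °C and ≥3 h at 4 °C, the 665/620 nm ratio was read; IC50 from a 4-parameter fit.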

In the next test the test system is MOLM-13 cells. As to the kind of experiment: Cell proliferation assay MOLM-13, method 1 (alamarBlue). In kind it is cell-based. The note with it: Homo sapiens, acute myeloid leukaemia cells, 4000 cells/well, 96-well, 96 hours. How it is done:
In accordance with the invention, the ability of the substances to inhibit cell proliferation was determined. Cell viability was determined by means of the alamarBlue® reagent (Invitrogen) in a Victor X3 Multilabel Reader (Perkin Elmer). The excitation wavelength was 530 nm and the emission wavelength […].
The MOLM-13 cells (DSMZ, ACC 554) were seeded at a concentration of 4000 cells/well in 100 μl of growth medium (RPMI1640, 10% FCS) on 96-well microtitre plates (method 1).
After overnight incubation at 37° C., the fluorescence values (CI values) were determined. Then the plates were treated with various substance dilutions (1E-5 M, 3E-6 M, 1E-6 M, 3E-7 M, 1E-7 M, 3E-8 M, 1E-8 M) and incubated at 37° C. over 96 hours (MOLM-13, B16F10, CHL-1 cells) or 120 hours (MOLP-8 cells). Subsequently, the fluorescence values were determined (CO values). For the data analysis, the CI values were subtracted from the CO values and the results were compared between cells which had been treated with various dilutions of the substance or only with buffer solution. The IC50 values (substance concentration needed for 50% inhibition of cell proliferation) were calculated therefrom.
The substances were tested in the cell lines in Table 2, which represent the indications specified by way of example: […]

With `C[C@@H]1C(=O)N(C)c2ccc(Nc3ccc4c(c3)S(=O)(=O)CC4)nc2N1C1CCOCC1` [Example 4, (3R)-6-[(1,1-Dioxido-2,3-dihydro-1-benzothiophen-6-yl)amino]-1,3-dimethyl-4-(tetrahydro-2H-pyran-4-yl)-3,4-dihydropyrido[2,3-b]pyrazin-2(1H)-one], the IC50 in test [1] is 93 nM; with MOLM-13 cells, 289 nM.
The matching figures for `COc1ccc(S(C)(=O)=O)cc1Nc1ccc2c(n1)N(C1CCOCC1)[C@H](C)C(=O)N2C` [Example 3, (3R)-6-{[2-Methoxy-5-(methylsulphonyl)phenyl]amino}-1,3-dimethyl-4-(tetrahydro-2H-pyran-4-yl)-3,4-dihydropyrido[2,3-b]pyrazin-2(1H)-one]: 79 nM and 175 nM.
The matching figures for `COc1ccc(S(=O)(=O)C(F)(F)F)cc1Nc1ccc2c(n1)N(C1CCOCC1)[C@H](C)C(=O)N2C` [Example 39, (3R)-6-({2-Methoxy-5-[(trifluoromethyl)sulphonyl]phenyl}amino)-1,3-dimethyl-4-(tetrahydro-2H-pyran-4-yl)-3,4-dihydropyrido[2,3-b]pyrazin-2(1H)-one]: 46 nM and 137 nM.
The matching figures for `C[C@@H]1C(=O)N(C)c2ccc(Nc3cccc(S(=O)(=O)C4CC4)c3)nc2N1C1CCOCC1` [Example 6, (3R)-6-{[3-(Cyclopropylsulphonyl)phenyl]amino}-1,3-dimethyl-4-(tetrahydro-2H-pyran-4-yl)-3,4-dihydropyrido[2,3-b]pyrazin-2(1H)-one]: 24 nM and 89 nM.
Turning to `COc1cc(Nc2ccc3c(n2)N(C2CCOCC2)[C@H](C)C(=O)N3C)cc(S(C)(=O)=O)c1` [Example 40, (3R)-6-{[3-Methoxy-5-(methylsulphonyl)phenyl]amino}-1,3-dimethyl-4-(tetrahydro-2H-pyran-4-yl)-3,4-dihydropyrido[2,3-b]pyrazin-2(1H)-one], the half-maximal inhibitory concentration (IC50) in test [1] amounted to 63 nM; in the test with MOLM-13 cells it was 121 nM.
The matching figures for `COc1ccc(S(=O)(=O)C2CC2)cc1Nc1ccc2c(n1)N(C(C)C)[C@H](C)C(=O)N2C` [Example 15, (3R)-6-{[5-(Cyclopropylsulphonyl)-2-methoxyphenyl]amino}-4-isopropyl-1,3-dimethyl-3,4-dihydropyrido[2,3-b]pyrazin-2(1H)-one]: 73 nM and 149 nM.
Take `COc1ccc(S(=O)(=O)C(C)C)cc1Nc1ccc2c(n1)N(C1CCN(CC(F)(F)F)CC1)[C@H](C)C(=O)N2C` [Example 28, (3R)-6-{[5-(Isopropylsulphonyl)-2-methoxyphenyl]amino}-1,3-dimethyl-4-[1-(2,2,2-trifluoroethyl)piperidin-4-yl]-3,4-dihydropyrido[2,3-b]pyrazin-2(1H)-one]: the IC50 is 24 nM in test [1] and 26 nM in the test on MOLM-13 cells.
The matching figures for `Cc1cc(Nc2ccc3c(n2)N(C2CCOCC2)[C@H](C)C(=O)N3C)ccn1` [Example 42, (3R)-1,3-Dimethyl-6-[(2-methylpyridin-4-yl)amino]-4-(tetrahydro-2H-pyran-4-yl)-3,4-dihydropyrido[2,3-b]pyrazin-2(1H)-one]: 228 nM and 686 nM.
The matching figures for `COc1ccc(S(=O)(=O)C(C)C)cc1Nc1ccc2c(n1)N(C1CCOCC1)[C@H](C)C(=O)N2C` [Example 9, (3R)-6-{[5-(Isopropylsulphonyl)-2-methoxyphenyl]amino}-1,3-dimethyl-4-(tetrahydro-2H-pyran-4-yl)-3,4-dihydropyrido[2,3-b]pyrazin-2(1H)-one]: 25 nM and 42 nM.
Take `COc1ccc(S(=O)(=O)C(F)(F)F)cc1Nc1ccc2c(n1)N(C1CCN(C)CC1)[C@H](C)C(=O)N2C` [Example 21, (3R)-6-({2-Methoxy-5-[(trifluoromethyl)sulphonyl]phenyl}amino)-1,3-dimethyl-4-(1-methylpiperidin-4-yl)-3,4-dihydropyrido[2,3-b]pyrazin-2(1H)-one]: the half-maximal inhibitory concentration (IC50) was determined as 23 nM in test [1] and 16 nM in the test on MOLM-13 cells.
The matching figures for `CC1C(=O)N(C)c2ccc(Nc3cccc(S(C)(=O)=O)c3)nc2N1c1ccccc1` (centres unmarked) [Example 17, 1,3-Dimethyl-6-{[3-(methylsulphonyl)phenyl]amino}-4-phenyl-3,4-dihydropyrido[2,3-b]pyrazin-2(1H)-one]: 303 nM and 1410 nM.
The matching figures for `COc1ccc(S(=O)(=O)C2CCC2)cc1Nc1ccc2c(n1)N(C1CCOCC1)[C@H](C)C(=O)N2C` [Example 35, (3R)-6-{[5-(Cyclobutylsulphonyl)-2-methoxyphenyl]amino}-1,3-dimethyl-4-(tetrahydro-2H-pyran-4-yl)-3,4-dihydropyrido[2,3-b]pyrazin-2(1H)-one]: 32 nM and 12 nM.
The matching figures for `C[C@@H]1C(=O)N(C)c2ccc(Nc3cccc(S(C)(=O)=O)c3)nc2N1C1CCOCC1` [Example 1, (3R)-1,3-Dimethyl-6-{[3-(methylsulphonyl)phenyl]amino}-4-(tetrahydro-2H-pyran-4-yl)-3,4-dihydropyrido[2,3-b]pyrazin-2(1H)-one]: 75 nM and 191 nM.
Regarding `COc1ccc(S(C)(=O)=O)cc1Nc1ccc2c(n1)N(C1CCNCC1)[C@H](C)C(=O)N2C` [Example 27, (3R)-6-{[2-Methoxy-5-(methylsulphonyl)phenyl]amino}-1,3-dimethyl-4-(piperidin-4-yl)-3,4-dihydropyrido[2,3-b]pyrazin-2(1H)-one], the IC50 in test [1] came to 54 nM; in the test on MOLM-13 cells it was 69 nM.
`CC(C)S(=O)(=O)c1ccc(OC(F)(F)F)c(Nc2ccc3c(n2)N(C2CCOCC2)[C@H](C)C(=O)N3C)c1` [Example 38, (3R)-6-{[5-(Isopropylsulphonyl)-2-(trifluoromethoxy)phenyl]amino}-1,3-dimethyl-4-(tetrahydro-2H-pyran-4-yl)-3,4-dihydropyrido[2,3-b]pyrazin-2(1H)-one]: the IC50 worked out at 45 nM in test [1] and 32 nM in the test with MOLM-13 cells.
Consider `CCOC(=O)N=S(C)(=O)c1cccc(Nc2ccc3c(n2)N(C2CCOCC2)[C@H](C)C(=O)N3C)c1` (mixture of isomers) [Example 10, Ethyl [(3-{[(3R)-1,3-dimethyl-2-oxo-4-(tetrahydro-2H-pyran-4-yl)-1,2,3,4-tetrahydropyrido[2,3-b]pyrazin-6-yl]amino}phenyl)(methyl)oxido-λ^6-sulphanylidene]carbamate], for which the concentration for half-maximal inhibition (IC50) in test [1] was determined as 3630 nM; in the test on MOLM-13 cells it was 368 nM.
The matching figures for `COc1ccc(S(=O)(=O)C(C)C)cc1Nc1ccc2c(n1)N(C(C)C)[C@H](C)C(=O)N2C` [Example 16, (3R)-4-Isopropyl-6-{[5-(isopropylsulphonyl)-2-methoxyphenyl]amino}-1,3-dimethyl-3,4-dihydropyrido[2,3-b]pyrazin-2(1H)-one]: 88 nM and 184 nM.
Consider `COc1ccc(S(=O)(=O)C2CCOCC2)cc1Nc1ccc2c(n1)N(C1CCOCC1)[C@H](C)C(=O)N2C` [Example 34, (3R)-6-{[2-Methoxy-5-(tetrahydro-2H-pyran-4-ylsulphonyl)phenyl]amino}-1,3-dimethyl-4-(tetrahydro-2H-pyran-4-yl)-3,4-dihydropyrido[2,3-b]pyrazin-2(1H)-one], for which the IC50 in test [1] amounted to 22 nM; in the test on MOLM-13 cells it was 32 nM.
For the molecule `COc1ccc(S(=O)(=O)C(C)C)cc1Nc1ccc2c(n1)N(C1CCN(CCC(F)(F)F)CC1)[C@H](C)C(=O)N2C` [Example 31, (3R)-6-{[5-(Isopropylsulphonyl)-2-methoxyphenyl]amino}-1,3-dimethyl-4-[1-(3,3,3-trifluoropropyl)piperidin-4-yl]-3,4-dihydropyrido[2,3-b]pyrazin-2(1H)-one], the IC50 was 23 nM in test [1] and 14 nM in the test on MOLM-13 cells.
With `C[C@@H]1C(=O)N(C)c2ccc(Nc3cccc(S(C)(=O)=O)c3)nc2N1C1CCN(C)CC1` [Example 11, (3R)-1,3-Dimethyl-4-(1-methylpiperidin-4-yl)-6-{[3-(methylsulphonyl)phenyl]amino}-3,4-dihydropyrido[2,3-b]pyrazin-2(1H)-one], the values for the IC50 (in test [1]; in the test with MOLM-13 cells) were 94 nM and 188 nM, respectively.
With `COc1ccc(S(=O)(=O)C2CCOCC2)cc1Nc1ccc2c(n1)N(C1CCN(C)CC1)[C@H](C)C(=O)N2C` [Example 22, (3R)-6-{[2-Methoxy-5-(tetrahydro-2H-pyran-4-ylsulphonyl)phenyl]amino}-1,3-dimethyl-4-(1-methylpiperidin-4-yl)-3,4-dihydropyrido[2,3-b]pyrazin-2(1H)-one], the results for the IC50 (in test [1]; in the test on MOLM-13 cells) were 23 nM and 99 nM, respectively.
Take `COc1ccc(S(=O)(=O)C(C)C)cc1Nc1ccc2c(n1)N(C1CCN(C)CC1)[C@H](C)C(=O)N2C` [Example 13, (3R)-6-{[5-(Isopropylsulphonyl)-2-methoxyphenyl]amino}-1,3-dimethyl-4-(1-methylpiperidin-4-yl)-3,4-dihydropyrido[2,3-b]pyrazin-2(1H)-one]: the IC50 was determined as 16 nM in test [1] and 15 nM in the test on MOLM-13 cells.
